These results are taken from publication PMC4835124 (Drug Design, Development and Therapy, 2016).

Read-outs that look alike come from different tables or passages of the source.

One data set can be described thus: Food effect study. The following applies: for CL/F: Part 2, FDC_EVO5/MET1000 single oral dose, n=27, mean ± SD. The format is in vivo, human.
The conditions of data set [1]: single administration in healthy volunteers; cited from earlier work.
Data set [2] is described as follows: Comparative pharmacokinetic study. As to conditions: for CL/F: fasting, n=35, mean ± SD; for Tmax: po.
The conditions of data set [3]: multiple dosing, 5–20 mg dose range, healthy volunteers; cited from earlier work.
[4] abbreviates: Part 1, EVO+MET (individual tablets) single oral dose.
[5] abbreviates: Part 1, FDC_EVO5/MET1000 single oral dose, plasma.

As a reminder, the CL/F is clearance divided by bioavailability, as obtained after extravascular dosing. What is called half-life is how long it takes for the measured level to halve. As usually defined, the Tmax is the time at which the peak concentration occurs. For the compound `CC(C)(C)OC[C@@H]1C(=O)NCCN1C(=O)C[C@H](N)Cc1cc(F)c(F)cc1F` [Evogliptin, evogliptin], the CL/F in the data set “Food effect study” (Fasted) came out at 25.05 ± 6.68 L/h; in “Food effect study” (Fed), 23.76 ± 5.07 L/h; in data set [2] (setting [4]) it was 28.56 ± 8.64 L/h; in data set [2] (setting [5]), 28.81 ± 9.19 L/h. The “effect of food on pharmacokinetics” value in “Food effect study” (single oral dose of FDC_EVO5/MET1000, fed vs fasted) is on record as “did not significantly affect”; in data set [1] it was “not affected by food”. Moreover, the half-life in data set [1] is at least 30 h; in data set [2] (male, human, in vivo, terminal half-life, present study), over 24 h. Besides, the Tmax in data set [2] (male, human, in vivo) was determined as 5 h. Besides, in data set [2] (present study), the “intrasubject variability in CL/F” value is given as “around 10.0%”. In addition, the “dose linearity of pharmacokinetics” value in data set [3] is “linear pharmacokinetics”.
Turning to `CN(C)C(=N)N=C(N)N` [Metformin, metformin], in “Food effect study” (FDC_EVO5/MET1000 single oral dose), the “increase of AUClast under the fed condition compared to the fasted condition” value is 36%–60%. In addition, the apparent clearance CL/F in the data set “Food effect study” (Fasted) was determined as 112.95 ± 28.61 L/h; in the data set “Food effect study” (Fed), 78.76 ± 20.56 L/h; in data set [2] (setting [4]) it was 126.15 ± 35.21 L/h; in data set [2] (setting [5]), 126.82 ± 38.28 L/h. For the same compound, the time to peak (Tmax) in data set [2] (male, human, in vivo) turned out to be 4 h.
